Consider one compound from US12544444B2, “Administration of tailored feedstock to increase antibiotic susceptibility” (U.S. Government, as represented by the Sec. of Army, c/o …, priority 2018, dated 2026).

This experiment has as its system Clostridium acetobutylicum. Description: antibiotic sensitivity test (OD600 after 24 hours in 96-well plate, anaerobic). The note with it: C. acetobutylicum given oxidized feedstock compared to glucose as feedstock; FIG. 2, after 24 hours. It counts as cell-based, Clostridium acetobutylicum strain ATCC 824. On the procedure:
Bacterial culture conditions and strains have been previously published. All strains and cultures were maintained or grown in an atmosphere of 5.0% H2, 5.0% CO2, and 90.0% N2. Clostridium acetobutylicum strain ATCC 824 was obtained from ATCC and cultured using company protocol at 37° C. into Clostridial growth medium or CGM containing 0.75 g KH2PO4, 0.75 g K2HPO4, 1.0 g NaCl, 0.017 g MnSO4.5H2O, 0.70 g MgSO4.7H2O, 0.01 g FeSO4.7H2O, 2.0 g 1-asparagine, 5.0 g yeast extract, 2.0 g (NH4)2SO4, and 0.5% final concentration of desired carbohydrate—D-glucose, D-galacturonic acid, D-gluconic acid—at pH 6.5. Active cultures from initial growth stock were added to potato glucose medium to be maintained and stored as a spore solution. Potato glucose medium or PGM contains per liter of H2O—150 g grated fresh potato, 10 g D-glucose, 0.5 g (NH4)SO4, and 3 g CaCO3. The medium was boiled for 1 hour and strained through gauze before sterilization and use for culture. […]
The protocol for antibiotic sensitivity test was performed as follows in anaerobic conditions: 200 μL of CGM medium containing either 0.5% D-galacturonate or D-glucose was aliquoted into a sterile Costar® 96-well polystyrene flat bottom plate in triplicate per test condition. […] The optical density of the cultures in the wells were measured at 600 nm via a commercially available plate reader.

On to `Cc1ncc([N+](=O)[O-])n1CCO` [metronidazole], for which the “antibiotic (metronidazole) susceptibility increase” value is on record as “at least two-fold”.
